Test results published in publication PMC12589732, “Chemical composition and biological effects of Lavandula angustifolia Mill., essential oils” (AMB Express, 2025).

Biological target: T1, Tyrosinase
T1 construct: gene PPO3
Assay: L-DOPA oxidation, […] nm
Type: biochemical
Settings: substrate L-DOPA 5 mM stock; 50 mM phosphate pH 6.5; 37 °C; 10 min preincubation

Dermatoprotective: 242.99 ± 2.67 µg/mL
SMILES: O=c1c(O)c(-c2ccc(O)c(O)c2)oc2cc(O)cc(O)c12 [Quercetin]
